# Assays:
# [1] = tested on: HCT116 ARID1A isogenic (+/+ and −/−) cell lines; assay: Clonogenic survival of ARID1A isogenic cells; assay type: cell-based, human
# Protocol: FIG. 2. In vitro ARID1A/ATR synthetic lethality. A. Chemical structure of VX-970. B. Western blot of ARID1A in human ARID1A isogenic HCT116 cells. C. Image of colonies in 6 well-plate clonogenic assay. HCT116 ARID1A isogenic (^+/+ and ^−/−) cell lines were exposed to increasing concentrations of the VE-821 (0, 0.1, 1 uM) and VX-970 (0, 0.01, 0.05 uM) for 14 days. D and E. Dose response clonogenic survival curve of HCT116 ARID1A isogenic (^+/+ and ^−/−) cell lines exposed to increasing concentrations of the VE-821 and VX-970 for 14 days. Error bars represent SD from triplicate experiments, ANOVA p-value of <0.0001. F. Area under curve (AUC) box whisker comparison plot for human tumor cell lines exposed to VX-970 for five days. ARID1A wild type tumor cell lines (n=15) were compared to ARID1A mutant cell lines (n=9). Student's t-test p=0.00594. G. Dose response clonogenic survival curve of mouse Arid1a isogenic ES cell lines. Experiment was performed as per (C). Error bars represent SD from triplicate experiments, ANOVA p value of <0.0001. H. Western blot of Arid1a protein expression in mouse ES Arid1a isogenic cells. I. Z score box whisker comparison plot for 86 human tumor cell lines transfected with ATR siRNA. Cells lines were transfected with siRNA and cell viability was estimated five days later by Cell Titre Glo reagent.
# Short-term survival assays were performed in 384-well plates. Exponentially growing cells were plated at a concentration of 500 cells/well. Drug was added 24 h after seeding and cells were continuously exposed to the drug for five days, after which cell viability was estimated using CellTitre-Glo luminescence (Promega). For clonogenic assays, cells were seeded in 6-well plates (500 cells/well) and continuously exposed to drug 24!h after seeding for 14 days. Media containing fresh drug was replaced every 72 hours. Cells were fixed with 10% trichloroacetic acid and stained with sulphorhodamine B (Sigma-Aldrich, Gillingham, UK). Colonies were counted manually. All cell-based assays were performed at least in triplicate.
# [2] = tested on: TOV21G (ARID1A mutant) and RMG1 (ARID1A wildtype) cells; assay: Five-day dose response in OCCC cell lines TOV21G and RMG1; assay type: cell-based, human; conditions: 5 days exposure
# Protocol: FIG. 3. In vivo ARID1A/ATR synthetic lethality. A. Schematic of VX-970 therapy experiment in mice bearing established HCT116 ARID1A^+/+ and ARID1A^−/− xenografts. Cells were inoculated subcutaneously into nude mice and tumors allowed to establish for 10 days. Mice were then randomized to treatment regimens of either VX-970 (60 mg/kg, 4× weekly by oral gavage) or vehicle. Mice were then treated for a subsequent 40 days. Tumor volume was monitored twice weekly. B. Relative tumor volume plot from (A) showing efficacy of VX-970 and selectivity for ARID1A^−/− xenografts* p=0.024, ANOVA. C. Schematic of tumor incidence experiment in mice with non-established HCT116 ARID1A^+/+ and ARID1A^−/− xenografts. Mice were inoculated with cells as before, randomized and then treated with VX-970. […] Tumor volume was monitored twice weekly and overall tumour incidence was assessed 40 days later. […] PARP-1, cleaved PARP-1 (85 kDa fragment) and tubulin were detected by western blot. […] Caspase3/7 activity was assessed using Caspase-Glo and total cellular viability was estimated using CellTitre-Glo. Luminescence ratios for Caspase-Glo (i.e. apoptotic cells) and CellTitre-Glo (ie viable cells) was determined for each dose and normalized to DMSO treated samples. *Student's t-test, p<0.05. […]
# Short-term survival assays were performed in 384-well plates. […] Colonies were counted manually. […]
# [3] = tested on: HCT116 ARID1A+/+ xenografts; assay: In vivo efficacy, HCT116 ARID1A+/+ subcutaneous xenografts; set-up: species or system mice
# Protocol: FIG. 3. In vivo ARID1A/ATR synthetic lethality. A. Schematic of VX-970 therapy experiment in mice bearing established HCT116 ARID1A^+/+ and ARID1A^−/− xenografts. Cells were inoculated subcutaneously into nude mice and tumors allowed to establish for 10 days. Mice were then randomized to treatment regimens of either VX-970 (60 mg/kg, 4× weekly by oral gavage) or vehicle. Mice were then treated for a subsequent 40 days. Tumor volume was monitored twice weekly. B. Relative tumor volume plot from (A) showing efficacy of VX-970 and selectivity for ARID1A^−/− xenografts* p=0.024, ANOVA. C. Schematic of tumor incidence experiment in mice with non-established HCT116 ARID1A^+/+ and ARID1A^−/− xenografts. Mice were inoculated with cells as before, randomized and then treated with VX-970. VX-970 or vehicle treatment was initiated on the day of cell implantation. Tumor volume was monitored twice weekly and overall tumour incidence was assessed 40 days later. D. Bar chart of incidence 40 days after implantation of HCT116 ARID1A^+/+ and ARID1A^−/− cells. Each group contained 15 animals and fractions above bars indicate the number of animals in which a measurable xenograft formed. *p=0.027 Fisher's exact test. E and F. Tumor growth in experiment described in (C). *p=0.015 ANOVA. G. VX-970 dose response curves from TOV21G (ARID1A mutant) and RMG1 (ARID1A wildtype) cells. Cells were exposed to VX-970 for 5 days. […] PARP-1, cleaved PARP-1 (85 kDa fragment) and tubulin were detected by western blot. […] Caspase3/7 activity was assessed using Caspase-Glo and total cellular viability was estimated using CellTitre-Glo. Luminescence ratios for Caspase-Glo (i.e. apoptotic cells) and CellTitre-Glo (ie viable cells) was determined for each dose and normalized to DMSO treated samples. *Student's t-test, p<0.05. […]
# In vivo efficacy studies were performed using HCT116 […], HCT116 ARID1A^−/− and TOV21G cells injected subcutaneously in the flank of female CD-1 Nude mice. […] Tumours were measured manually by calliper trice weekly and animals were sacrificed when tumours reached >15 mm in any direction.
smiles,measurement,setting,value
"CNCc1ccc(-c2cc(-c3nc(-c4ccc(S(=O)(=O)C(C)C)cc4)cnc3N)on2)cc1 [VX-970, 5-[4-(Isopropylsulfonyl)phenyl]-3-(3-{4-[(methylamino)methyl]phenyl}-1,2-oxazol-5-yl)-2-pyrazinamine]",ARID1A−/− selectivity compared with PARP inhibitors or cisplatin,[1],greater than for other proposed ARID1A-targeted agents
same,sensitivity of TOV21G vs RMG1,[2],more sensitive to both VE-821 and VX-970
same,growth of established ARID1A+/+ xenografts,"[3]; 60 mg/kg, 4x weekly oral gavage, 40 days",no effect
same,growth of ARID1A+/+ xenografts under continued treatment,"[3]; non-established xenograft experiment, p=0.63 ANOVA",did not impair
same,incidence of ARID1A+/+ xenografts,"[3]; treatment from day of cell implantation, incidence 40 days later, 15 animals per group",80%

# — US12233060B2, “Inhibitors of Ataxia-Telangiectasia Mutated and Rad3-related protein kinase (ATR) for use in methods of treating cancer” (THE INSTITUTE OF CANCER RESEARCH: ROYAL CANCER HOSPITAL, priority 2016, dated 2025)
